Test results: patent publication US9101620B2, “Polymorph of 3-(substituteddihydroisoindolinone-2-yl)-2,6-dioxopiperidine, and pharmaceutical compositions thereof” (Nanjing Cavendish Bio-Engineering Technology Co., Ltd., priority 2009, dated 2015)

What was measured:
Type in all cases: physicochemical
[1] = Oxidation destruction (30% H2O2), related substances by HPLC
Method: (§1) Oxidation destruction: 50 mg of sample weighted accurately was added into measuring flask of 100 mL, and 10 mL 30% H2O2 was added. After standing at room temperature for 2 hour, the mixture was diluted with mobile phase to scale and shook to be homogeneous, and determined by HPLC.
(§2) HPLC conditions and system applicability: octadecylsilane bonded silica as the filler; 0.01 mol/L of potassium dihydrogen phosphate (adjusted to pH 3.5 by phosphoric acid)-methanol-acetonitrile (80:15:5) as the mobile phase; detection wavelength was 240 nm; the number of theoretical plates should be not less than 2000, calculated according to the peak of lenalidomide. The resolution of the peak of 3-(4-amino-1-oxo-1,3-dihydro-2H-isoindole-2-yl)-piperidine-2,6-dione from the peaks of adjacent impurities should meet requirements.
(§3) Determination method: sample was dissolved in mobile phase to be the solution containing 0.5 mg per 1 mL. 20 μL of such solution was injected into liquid chromatograph and chromatogram was recorded until fourfold the retention time of major component peak. If there were impurities peaks in the chromatogram of sample solution, total impurities and sole impurity were calculated by normalization method on the basis of peak area.

[2] = Destruction test: impurities in raw materials before destruction (HPLC)
Description: The methods of destruction experiment of the Polymorph I of this invention (hereinafter referred to as “Polymorph I”) contrasting with the Polymorph A and B of 3-(4-amino-1-oxo-1,3-dihydro-2H-isoindole-2-yl)-piperidine-2,6-dione prepared by the method in CN 1871003A (hereinafter referred to as “Polymorph A” and “polymorph B”) and results of stability are followed:
as §2, §3

[3] = Acid destruction (0.1 mol/L HCl), related substances by HPLC
Method: as §1, with “Acid” for “Oxidation”, “0.1 mol/L HCl solution” for “30% H2O2”, “1” for “2”, “hour, an equal amount of 0.1 mol/L NaOH solution was added for neutralization. Then” for “hour,”
as §2, §3

[4] = 30% H2O2, room temperature, 2 hour
[5] = 0.1 mol/L HCl, room temperature, 1 hour

Major impurity, peak tR5.649-5.660 [1, 4]: 0.09%
Major impurity, peak tR10.372-10.401 [1, 4]: 0.03%
Major impurity, peak tR32.279-32.318 [1, 4]: 0.01%
Major impurity, peak tR35.063-35.098 [1, 4]: 0.02%
Total impurities generated by oxidation destruction [1, 4]: impurities: 0.16%
Chemical stability (in words) ([1]; oxidating condition / oxidation destroy experiment): better stability
Major impurity, peak tR5.872-5.948 [2]: 0.01%
Major impurity, peak tR10.961-11.165 [2]: 0.03%
Total impurities in raw materials before destruction ([2]; HPLC peak area normalization): impurities: 0.04%
Major impurity, peak tR4.717-4.737 [3, 5]: 0.20%
Major impurity, peak tR7.367-7.381 [3, 5]: 0.41%
Major impurity, peak tR11.067-11.100 [3, 5]: 0.01%
Total impurities generated by 0.1 mol/L acid destruction for 1 hour [3, 5]: impurities: 0.62%
Chemical stability (in words) ([3]; acid condition / 0.1 mol/L diluted HCl solution): better stability
Compound: Nc1cccc2c1CN(C1CCC(=O)NC1=O)C2=O (single isomer, unassigned) [Polymorph I, 3-(4-amino-1-oxo-1,3-dihydro-2H-isoindole-2-yl)-piperidine-2,6-dione]
